Data published in ChEMBL document CHEMBL3217633, “Simplified platensimycin analogues as antibacterial agents” (2012).
In brackets after ≈: the same amount, converted by molar mass. Activity calls are given as the source filed them. No cut-off for these calls is given here.

Assays:
Staphylococcus aureus [1] = assay: Antimicrobial activity against methicillin-resistant Staphylococcus aureus ATCC 43300 at 10 ug/disc after 24 hrs by disc diffusion assay; assay type: functional; conditions: ATCC 43300, 24 h, read-out: DIZ
Staphylococcus aureus [2] = assay: Antimicrobial activity against methicillin-resistant Staphylococcus aureus ATCC 43300 at 1 mg/disc after 24 hrs by disc diffusion assay; assay type: functional
Staphylococcus aureus [3] = assay: Antimicrobial activity against methicillin-resistant Staphylococcus aureus ATCC 43300 after 24 hrs by broth microdilution method; assay type: functional; conditions: ATCC 43300, 24 h
Staphylococcus aureus [4] = assay: Antimicrobial activity against heterogeneous vancomycin-intermediate Staphylococcus aureus ATCC 700698 after 24 hrs by broth microdilution method; assay type: functional; conditions: ATCC 700698, 24 h
Staphylococcus aureus [5] = assay: Antimicrobial activity against vancomycin-intermediate Staphylococcus aureus ATCC 700699 after 24 hrs by broth microdilution method; assay type: functional; conditions: ATCC 700699, 24 h
Acinetobacter baumannii = assay: Antimicrobial activity against Acinetobacter baumannii ATCC 19606; assay type: functional
Pseudomonas aeruginosa = assay: Antimicrobial activity against Pseudomonas aeruginosa ATCC 27853; assay type: functional, organism-based
Klebsiella pneumoniae = assay: Antimicrobial activity against Klebsiella pneumoniae ATCC 13883; assay type: functional, organism-based

Structure (SMILES)	zone of inhibition at 10 µg/disc (Staphylococcus aureus [1]) [mm]	diameter of the inhibition zone (DIZ) (Staphylococcus aureus [2]) [mm]	other results
CC12CC[C@](C(=O)Nc3cccc(C(=O)O)c3O)(OC1=O)C2(C)C	0	14	–
O=C(O)c1cccc(NC(=O)C2CCCC2)c1O	0	–	–
CCC1(C(=O)Nc2cccc(C(=O)O)c2O)CCCCC1	0	10	–
CC12CC[C@@](C(=O)Nc3cccc(C(=O)O)c3O)(OC1=O)C2(C)C	0	21	–
CC12CC[C@@](C(=O)Nc3c(O)ccc(C(=O)O)c3O)(OC1=O)C2(C)C	0	22	–
CCC(=O)Nc1c(O)ccc(C(=O)O)c1O	0	–	–
O=C(O)c1ccc(O)c(NC(=O)C2CCCC2)c1O	0	8	–
CC12CC[C@](C(=O)Nc3c(O)ccc(C(=O)O)c3O)(OC1=O)C2(C)C	18	38	–
O=C(O)c1cccc(NC(=O)C2CCCCC2)c1O	0	–	–
CC(C)C(=O)Nc1c(O)ccc(C(=O)O)c1O	0	–	–
CCC1(C(=O)Nc2c(O)ccc(C(=O)O)c2O)CCCCC1	0	10	–
CC(C)C(=O)Nc1cccc(C(=O)O)c1O	0	–	–
CC(=O)NC[C@H]1CN(c2ccc(N3CCOCC3)c(F)c2)C(=O)O1 [LINEZOLID]	26	–	–
CC(C)(C)C(=O)Nc1c(O)ccc(C(=O)O)c1O	0	–	–
O=C(O)c1ccc(O)c(NC(=O)C23CC4CC(CC(C4)C2)C3)c1O	0	11	–
CC12C[C@@]34C=CC(=O)[C@@](C)(CCC(=O)Nc5c(O)ccc(C(=O)O)c5O)C3[C@H](CC1C4)O2 (stereo partly drawn) [PLATENSIMYCIN]	30	–	MIC (Staphylococcus aureus [3]): 2 µg/mL (≈ 4.53 µM); MIC (Staphylococcus aureus [4]): 2 µg/mL (≈ 4.53 µM); MIC (Staphylococcus aureus [5]): 2 µg/mL (≈ 4.53 µM); Activity (Acinetobacter baumannii): inactive; Activity (Pseudomonas aeruginosa): inactive; Activity (Klebsiella pneumoniae): inactive
O=C(O)c1ccc(O)c(NC(=O)C2CCCCC2)c1O	0	–	–
O=C(O)c1cccc(NC(=O)C23CC4CC(CC(C4)C2)C3)c1O	0	11	–
CC(C)(C)C(=O)Nc1cccc(C(=O)O)c1O	0	–	–
CCCC(=O)Nc1c(O)ccc(C(=O)O)c1O	0	20	–
CCCC(=O)Nc1cccc(C(=O)O)c1O	0	–	–
CCC(=O)Nc1cccc(C(=O)O)c1O	0	–	–
